Numbering of substitutions follows the chain as printed. Several values for one entry are separate records, joined by “and”; a condition that tells them apart may be missing. Equal entries are not always repeated. Where two headings read alike, the source gives them in different places.
Columns and labels:
Assay type in all cases: cell-based
hTA1 R83H = molecular target: T1, hTA1 R83H (Homo sapiens, UniProt Q96RJ0, R83H); assay: GloSensor cAMP accumulation assay, R83H mutant;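 note: cells transiently co-expressing hTA1 and a cAMP GloSensor, luminescence read 30 min after agonist addition at room temperature, concentration–response fitted by non-linear regression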
T1 construct: expressed in transfected cells; host or cells: HEK293T
T1 sequence (Q96RJ0 1-339 R83H): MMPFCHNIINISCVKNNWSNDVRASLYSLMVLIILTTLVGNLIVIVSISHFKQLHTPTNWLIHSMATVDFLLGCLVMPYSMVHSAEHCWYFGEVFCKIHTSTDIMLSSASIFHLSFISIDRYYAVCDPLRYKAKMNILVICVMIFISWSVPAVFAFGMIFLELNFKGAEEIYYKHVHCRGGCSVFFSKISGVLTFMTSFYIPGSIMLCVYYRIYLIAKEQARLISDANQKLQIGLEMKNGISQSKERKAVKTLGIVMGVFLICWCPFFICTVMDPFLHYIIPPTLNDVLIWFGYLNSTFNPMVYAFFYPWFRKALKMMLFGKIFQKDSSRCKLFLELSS

hTA1 V184P = molecular target: T2, hTA1 V184P (Homo sapiens, UniProt Q96RJ0, V184P); assay: GloSensor cAMP accumulation assay, V184P mutant; details: for cAMP accumulation response, single replicate values (source data, Supplementary Figure 5): hTA1 V184P (N=2), log[Compound]
T2 construct: expressed in transfected cells; host or cells: HEK293T
T2 sequence (Q96RJ0 1-339 V184P): T1 sequence (Q96RJ0 1-339 R83H) with H83R, V184P

hTA1 C5S = molecular target: T3, hTA1 C5S (Homo sapiens, UniProt Q96RJ0, C5S); assay: GloSensor cAMP accumulation assay, C5S mutant; details: for C5S - Normalized Luminescence Counts (N=2): log[Compound], single wells
T3 construct: expressed in transfected cells; host or cells: HEK293T
T3 sequence (Q96RJ0 1-339 C5S): T1 sequence (Q96RJ0 1-339 R83H) with C5S, H83R

hTA1 T271N = molecular target: T4, hTA1 T271N (Homo sapiens, UniProt Q96RJ0, T271N); assay: GloSensor cAMP accumulation assay, T271N mutant
T4 construct: expressed in transfected cells; host or cells: HEK293T
T4 sequence (Q96RJ0 1-339 T271N): T1 sequence (Q96RJ0 1-339 R83H) with H83R, T271N

Structure (SMILES): NCCc1ccc(O)cc1 [TYR, tyramine]
- ΔEmax values (each mutant value - WT average) (hTA1 R83H; R83H mutant minus WT average): -13.6885
- EC50 (hTA1 R83H; R83H mutant, each line an independent experiment, 3 replicates, read-out: pEC50 values (Mean) (converted)): 5330 nM
- Emax (hTA1 R83H; R83H mutant, β-PEA = 100, each line an independent experiment, 3 replicates, read-out: Emax values (Mean)): 85.3%
- EC50 (hTA1 R83H; R83H, n=2, read-out: EC50): 31400 nM
- reduction in potency vs wild type (hTA1 V184P; V184P): 4 fold
- EC50 (hTA1 V184P; V184P, n=2, read-out: EC50): 1490 nM
- Emax (hTA1 V184P; V184P, n=2, read-out: Span ± SEM (Emax normalized to β-PEA)): 105 ± 5.68%
- cAMP accumulation response, single replicate values (source data, Supplementary Figure 5) (hTA1 V184P; M = -5): 66.7204 and 110.557 and 88.2354 and 80.832 and 102.751 and 95.962
- cAMP accumulation response, single replicate values (source data, Supplementary Figure 5) (hTA1 V184P; M = -5.522): 68.2965 and 82.5176 and 84.3869 and 52.6087 and 59.3978 and 71.1332
- cAMP accumulation response, single replicate values (source data, Supplementary Figure 5) (hTA1 V184P; M = -6): 47.9177 and 50.0802 and 42.1633 and 41.1642 and 31.9504 and 31.2715
- cAMP accumulation response, single replicate values (source data, Supplementary Figure 5) (hTA1 V184P; M = -6.522): 19.512 and 25.4864 and 24.1669 and 21.0878 and 21.7667 and 21.1848
- cAMP accumulation response, single replicate values (source data, Supplementary Figure 5) (hTA1 V184P; M = -7): 8.113 and 10.3856 and 10.972 and 5.085 and 4.018 and 3.436
- cAMP accumulation response, single replicate values (source data, Supplementary Figure 5) (hTA1 V184P; M = -7.522): 1.736 and 1.149 and 1.113 and 1.69 (2×) and 1.5934
- cAMP accumulation response, single replicate values (source data, Supplementary Figure 5) (hTA1 V184P; M = -8): 1.479 and 2.432 and 2.102 and -0.4433 and -0.3463 and 0.1386
- cAMP accumulation response, single replicate values (source data, Supplementary Figure 5) (hTA1 V184P; M = -8.522): 0.0496 and 0.8926 and 2.065 and -0.3463 and 0.4296 and -0.05538
- cAMP accumulation response, single replicate values (source data, Supplementary Figure 5) (hTA1 V184P; M = -9): -0.2803 and 1.809 and 0.9293 and -0.4433 and -0.2494 (2×)
- cAMP accumulation response, single replicate values (source data, Supplementary Figure 5) (hTA1 V184P; M = -9.522): -0.3536 and -0.06036 and -0.6835 and -0.05538 (2×) and 0.04161
- cAMP accumulation response, single replicate values (source data, Supplementary Figure 5) (hTA1 V184P; M = -10): 0.4894 and -0.09701 and -0.5368 and 0.04161 and -0.3463 and -0.05538
- cAMP accumulation response, single replicate values (source data, Supplementary Figure 5) (hTA1 V184P; M = -10.522): -0.4269 and 0.4528 and -0.94 and 0.04161 and 0.5265 and -0.05538
- cAMP accumulation response, single replicate values (source data, Supplementary Figure 5) (hTA1 V184P; M = -11): 0.1229 and 0.4528 and 0.0496 and -0.2494 and -0.4433 and 0.1386
- cAMP accumulation response, single replicate values (source data, Supplementary Figure 5) (hTA1 V184P; M = -11.522): -0.2436 and 1.039 and -0.2803 and 0.04161 and 0.5265 and 0.3326
- cAMP accumulation response, single replicate values (source data, Supplementary Figure 5) (hTA1 V184P; M = -12): -0.1337 and -0.5368 and -0.7568 and 0.1386 and 0.5265 (2×)
- cAMP accumulation response, single replicate values (source data, Supplementary Figure 5) (hTA1 V184P; M = -12.522): 1.113 and 0.5994 and -0.5368 and 1.399 and 1.302 and 1.69
- EC50 (hTA1 V184P; hTA1 V184P mutant, Figure 3B source data, each grid row a separate experiment, 3 replicates, read-out: pEC50 values (Mean) (converted)): 2180 nM and 1020 nM
- Emax values, Mean (hTA1 V184P; hTA1 V184P mutant, β-PEA set to 100, each grid row a separate experiment, 3 replicates): 99.5188
- Emax (hTA1 V184P; hTA1 V184P mutant, β-PEA set to 100, each grid row a separate experiment, 3 replicates, read-out: Emax values (Mean)): 111%
- EC50 (hTA1 C5S; C5S, n=2, read-out: EC50): 418 nM
- Emax (hTA1 C5S; C5S, n=2, read-out: Span ± SEM (Emax normalized to β-PEA)): 97.4 ± 4.98%
- ΔpEC50 values (each mutant value - WT average), Mean (hTA1 C5S; hTA1 C5S minus WT average): 0.08447 and -0.09146
- EC50 (hTA1 C5S; hTA1 C5S, mean of 3 replicates, one line per independent experiment, read-out: pEC50 values, Mean (converted)): 342 nM and 512 nM
- Emax values, Mean (hTA1 C5S; hTA1 C5S, β-PEA = 100, mean of 3 replicates, one line per independent experiment): 92.4348
- Emax (hTA1 C5S; hTA1 C5S, β-PEA = 100, mean of 3 replicates, one line per independent experiment, read-out: Emax values, Mean): 102%
- C5S - Normalized Luminescence Counts (N=2) (hTA1 C5S; M = -5): 102.862 and 111.578 and 98.7984 and 85.7838 and 116.923 and 74.2532
- C5S - Normalized Luminescence Counts (N=2) (hTA1 C5S; M = -5.522): 86.6512 and 89.3832 and 85.861 and 68.3844 and 81.1578 and 69.9034
- C5S - Normalized Luminescence Counts (N=2) (hTA1 C5S; M = -6): 78.4779 and 69.4918 and 73.443 and 62.6536 and 54.2301 and 61.4799
- C5S - Normalized Luminescence Counts (N=2) (hTA1 C5S; M = -6.522): 44.8815 and 51.1131 and 50.1196 and 36.2784 and 34.207 and 33.0332
- C5S - Normalized Luminescence Counts (N=2) (hTA1 C5S; M = -7): 29.0315 and 24.8319 and 26.4576 and 17.7742 and 18.5337 and 19.2242
- C5S - Normalized Luminescence Counts (N=2) (hTA1 C5S; M = -7.522): 7.6273 and 8.959 and 8.553 and 6.382 and 5.3461 and 5.829
- EC50 (hTA1 T271N; T271N mutant, Figure 5B, each row one independent experiment (3 replicates), read-out: pEC50 values, Mean (converted)): 553 nM and 1350 nM
- Emax values, Mean (hTA1 T271N; T271N mutant, Figure 5B, β-PEA = 100, each row one independent experiment (3 replicates)): 98.6225
- Emax (hTA1 T271N; T271N mutant, Figure 5B, β-PEA = 100, each row one independent experiment (3 replicates), read-out: Emax values, Mean): 106%
- EC50 (hTA1 T271N; T271N, n=2, read-out: EC50): 863 nM
- Emax (hTA1 T271N; T271N, n=2, read-out: Span ± SEM (Emax normalized to β-PEA)): 103 ± 3.93%

From article PMC10762035, “Molecular basis of human trace amine-associated receptor 1 activation” (Nature Communications, 2024)
